Assay results reported in paper PMC4191062, “Development of αGlcN(1↔1)αMan-Based Lipid A Mimetics as a Novel Class of Potent Toll-like Receptor 4 Agonists” (Journal of Medicinal Chemistry, 2014).
Read-outs that look alike come from different tables or passages of the source.

Columns and labels:
[1] = tested on: bone marrow-derived macrophages (BMDM); experiment: TNF-α and IL-6 production in mouse bone marrow-derived macrophages (ELISA); assay type: cell-based, C57BL/6J mice; settings: mBMDM
Protocol: The ability of Lipid A mimetics 1–3 to induce the production of TNF-α and IL-6 from bone marrow-derived macrophages (BMDM) in mice was subsequently examined and compared to that of synthetic E. coli Lipid A and E. coli MPLA, which are reliable positive controls due to their chemical purity and homogeneity (Figure 6). […] Likewise, 1 nM (1.8 ng/mL) of 1 or 2 triggered the release of a 3-fold higher amount of IL-6 (1500 pg/mL) compared to Lipid A (500 pg/mL).
Bone-marrow-derived microphages (BMDMs) were isolated and differentiated from the bone marrow of C57BL/6J mice. The bone marrow was flushed from femur and fibia with RPMI media. The erythrocytes were lysed with 0.88% ammonium chloride, 15 min at 37 °C. A single-cell suspension of the bone marrow cells was then seeded in cell culture flasks at a concentration of 1 × 10^6 cells/mL in RPMI supplemented with 20% FBS and 40 ng/mL recombinant M-CSF. The cell culture medium was changed on day 3. On day 6, the differentiated cells were trypsinized, counted, and seeded in 24-well plates at a concentration of 1 × 10^6 cells/mL in RPMI supplemented with 10% FBS. After 24 h, the cells were stimulated with Lipid A mimetics 1–3 and with synthetic E. coli Lipid A/MPLA (E. coli O111:B4 LPS was used as positive control) for 16 h. The nanomolar concentrations of 1–3 were calculated according to the MW of the synthetic compounds. The supernatants were then tested for cytokines using Ready-Set-Go ELISA kits (eBioscience).

[2] = molecular target: hTLR4/hMD-2/CD14-transfected HEK293 cells (Homo sapiens, UniProt O00206+Q9Y6Y9); experiment: hTLR4/MD-2/CD14-transfected HEK293 (HEK-Blue) activation assay, NF-κB-dependent SEAP reporter; assay type: cell-based; settings: for concentration at which TLR4 saturation plateau was reached: NF-κB/SEAP dose response
Excerpt: The propensity of the α,α-GM-LAMs 1–3 to stimulate TLR4-mediated immune signaling was first assessed in the hTLR4/hMD-2/CD14 transfected human embryonic kidney (HEK) 293 cells (HEK-Blue). Since we were particularly interested in the molecular recognition mechanisms implicated in the binding of LPS by the MD-2·TLR4 complex wherein the Lipid A/Re-LPS portion of LPS is exclusively involved, we evaluated the activities of α,α-GM-LAMs 1–3 compared to E. coliRe-LPS (Figure 1A). It has been previously shown that the minimum structural requirement for the expression of the highest cytokine-inducing potency resides in Re-LPS, which entails two 3-deoxy-D-manno-oct-2-ulosonic acid (Kdo) residues in addition to Lipid A (Supporting Information, SI-Figure 1A).[54],[55] Moreover, the Re-LPS has a defined molecular weight (MW) similar to the MW range for Lipid A mimetics (1.8–2.2 kDa), in contrast to wild-type LPS having variable MW (10–15 kDa), so that the direct comparison of a dose-dependent response between compounds 1–3 and Re-LPS is more appropriate. The TLR4-stimulating activity of Lipid A mimetics 1–3 was examined over a wide concentration range by monitoring of the activation of the NF-κB regulated signal transduction pathway via measuring the induction of secreted embryonic alkaline phosphatase (SEAP) and compared to the responses elicited by E. coliRe-LPS and SM-MPLA.
Growth conditions and activation assay were set as recommended by InvivoGen. The cells were stimulated with the solutions of compounds 1–3 or LPS/Re-LPS in DMEM supplemented by 10% FCS at the indicated concentrations. […] The compounds were added in a total volume of 20 μL to 25000 HEK-Blue hTLR4 cells in 180 μL plates and were incubated for 20–24 h at 37 °C and 5% CO2. SEAP levels were determined by incubation of 20 μL of challenged cell supernatants with 180 μL of detection reagent (QUANTI-Blue), and the color development was measured at 650 nm using a spectrophotometer (SpectraMAX 190). Data were combined from n = 3 independent experiments; error bars indicate standard error of the mean.
Supplementary SI-Figure 1
E. coli Re-LPS E. coli O111:B4
SI-Figure 1. (A) Dose-dependent activation of TLR4 signaling in hTLR4/hMD-2/hCD14 transfected HEK293 cells (HEK-Blue) by E. coli Re-LPS compared to E. coli O111:B4 LPS. [nM] concentrations were calculated from [ng/ml] concentrations based on the following molecular weights (MW): MWE. coli Re-LPS 2339 Da, MWE. coli O111:B4 LPS 10000 Da. (B) Dose-dependent activation of TLR4 signaling in hTLR4/hMD-2/hCD14 transfected HEK293 cells (HEK-Blue) by Lipid A mimetics 1- 3 compared to E. coli Re-LPS and S. minnesota MPLA. Non-linear curve fit (variable slope) was calculated using GraphPad Prism and is shown for the mean curves. Dotted lines indicate corresponding Ec50 values. Statistical analysis was performed on non-linear curve fits on individual datasets using an un-paired two-tailed t-test (*** indicates a p value < 0.001, ns indicates non-significant change). Top, bottom, hill slope and Ec50 values of non-linear curve fit on individual datasets are shown. […]

[3] = SEAP induction, 20–24 h, mean curve, nM calculated from ng/ml via MW, read-out: EC50 NF-κB activation
[4] = SEAP induction, mean curve, read-out: Ec50 (ng/ml) (converted)
[5] = dataset n1, read-out: Ec50 (ng/ml), non-linear curve fit on individual dataset (converted)
[6] = dataset n2, read-out: Ec50 (ng/ml), non-linear curve fit on individual dataset (converted)
[7] = dataset n3, read-out: Ec50 (ng/ml), non-linear curve fit on individual dataset (converted)

Sequence of hTLR4/hMD-2/CD14-transfected HEK293 cells (O00206 24-839): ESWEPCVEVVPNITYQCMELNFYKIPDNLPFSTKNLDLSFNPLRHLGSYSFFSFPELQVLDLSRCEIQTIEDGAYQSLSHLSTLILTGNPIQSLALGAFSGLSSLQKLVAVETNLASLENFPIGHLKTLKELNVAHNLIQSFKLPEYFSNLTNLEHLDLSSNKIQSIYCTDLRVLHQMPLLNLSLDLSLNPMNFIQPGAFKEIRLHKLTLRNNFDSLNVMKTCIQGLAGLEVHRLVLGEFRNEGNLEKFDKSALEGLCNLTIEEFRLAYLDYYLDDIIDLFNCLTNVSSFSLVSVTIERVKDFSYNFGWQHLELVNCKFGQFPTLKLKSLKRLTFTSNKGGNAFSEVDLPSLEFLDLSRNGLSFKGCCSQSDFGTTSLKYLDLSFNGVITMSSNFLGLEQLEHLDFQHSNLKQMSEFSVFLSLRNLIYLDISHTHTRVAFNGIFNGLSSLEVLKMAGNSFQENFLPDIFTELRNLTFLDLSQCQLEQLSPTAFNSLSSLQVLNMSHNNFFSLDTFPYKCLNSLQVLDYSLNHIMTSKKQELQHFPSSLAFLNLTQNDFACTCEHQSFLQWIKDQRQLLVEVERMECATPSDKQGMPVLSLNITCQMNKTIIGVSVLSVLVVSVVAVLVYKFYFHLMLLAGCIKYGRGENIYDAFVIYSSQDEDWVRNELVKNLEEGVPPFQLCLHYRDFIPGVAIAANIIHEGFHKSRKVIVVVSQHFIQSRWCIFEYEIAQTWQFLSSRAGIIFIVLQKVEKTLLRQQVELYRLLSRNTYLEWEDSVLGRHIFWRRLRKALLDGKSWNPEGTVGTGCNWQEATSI
Sequence of hTLR4/hMD-2/CD14-transfected HEK293 cells (Q9Y6Y9 17-160 limits assumed): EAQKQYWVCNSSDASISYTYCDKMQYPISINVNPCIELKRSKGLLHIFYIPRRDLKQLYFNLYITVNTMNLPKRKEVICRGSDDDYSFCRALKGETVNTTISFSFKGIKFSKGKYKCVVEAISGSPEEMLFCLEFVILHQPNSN

Structure (SMILES) | expression level of IL-6 ([1]; 1 nM) | IL-6 release compared to MPLA ([1]; concentrations above 1 nM) | EC50 [2, 3] [nM] | EC50 [2, 4] [nM] | activation profile compared to SM-MPLA ([2]; at concentrations above 10 ng/mL) | Bottom of non-linear curve fit ([2]; dataset n1) | HillSlope of non-linear curve fit ([2]; dataset n1) | Top of non-linear curve fit ([2]; dataset n1) | EC50 [2, 5] [nM] | Bottom of non-linear curve fit ([2]; dataset n2) | HillSlope of non-linear curve fit ([2]; dataset n2) | Top of non-linear curve fit ([2]; dataset n2) | EC50 [2, 6] [nM] | Bottom of non-linear curve fit ([2]; dataset n3) | HillSlope of non-linear curve fit ([2]; dataset n3) | Top of non-linear curve fit ([2]; dataset n3) | EC50 [2, 7] [nM] | fold higher amount of IL-6 compared to Lipid A ([1]; 1 nM) [fold] | fold increase of TLR-4 stimulating activity on shortening lipid side chain at Man C-4 by 2×CH2 ([2]; 2 compared with 1) [fold] | concentration at which TLR4 saturation plateau was reached [2] [ng/mL]
CCCCCCCCCCCCCC(=O)O[C@H](CCCCCCCCCCC)CC(=O)O[C@@H]1[C@@H](NC(=O)C[C@@H](CCCCCCCCCCC)OC(=O)CCCCCCCCCCC)[C@@H](O[C@H]2O[C@H](CO)[C@@H](OC(=O)C[C@@H](CCCCCCCCCCC)OC(=O)CCCCCCCCCCC)[C@H](O)[C@@H]2OC)O[C@H](CO)[C@H]1OP(=O)(O)O [Compound 3, 4-O-[(R)-3-(Dodecanoyloxy)tetradecanoyl]-2-O-methyl-α-D-mannopyranosyl-(1↔1)-2-deoxy-2-[(R)-3-(dodecanoyloxy)tetradecanoylamino]-4-O-phosphoryl-3-O-[(R)-3-(tetradecanoyloxy)tetradecanoyl]-α-D-glucopyranoside] | only marginal expression level | higher IL-6 release than MPLA | 31 | 30.8 | more potent activation profile than SM-MPLA | 0.217 | 1.120 | 1.425 | 30.5 | 0.221 | 1.170 | 1.426 | 28.2 | 0.216 | 1.145 | 1.453 | 34.1 | – | – | –
CCCCCCCCCCCCCC(=O)O[C@H](CCCCCCCCCCC)CC(=O)O[C@@H]1[C@@H](NC(=O)C[C@@H](CCCCCCCCCCC)OC(=O)CCCCCCCCCCC)[C@@H](O[C@H]2O[C@H](COP(=O)(O)O)[C@@H](OC(=O)C[C@@H](CCCCCCCCCCC)OC(=O)CCCCCCCCC)[C@H](O)[C@@H]2OC)O[C@H](CO)[C@H]1OP(=O)(O)O [Compound 2, 4-O-[(R)-3-(Decanoyloxy)tetradecanoyl]-2-O-methyl-6-O-phosphoryl-α-mannopyranosyl-(1↔1)-2-deoxy-2-[(R)-3-(dodecanoyloxy)tetradecanoylamino]-4-O-phosphoryl-3-O-[(R)-3-(tetradecanoyloxy)tetradecanoyl]-α-D-glucopyranoside] | – | – | 0.08 | 0.0804 | – | 0.216 | 1.193 | 1.330 | 0.0884 | 0.232 | 1.250 | 1.319 | 0.0827 | 0.236 | 1.246 | 1.320 | 0.0758 | 3 | 5 | 1
CCCCCCCCCCCCCC(=O)O[C@H](CCCCCCCCCCC)CC(=O)O[C@@H]1[C@@H](NC(=O)C[C@@H](CCCCCCCCCCC)OC(=O)CCCCCCCCCCC)[C@@H](O[C@H]2O[C@H](COP(=O)(O)O)[C@@H](OC(=O)C[C@@H](CCCCCCCCCCC)OC(=O)CCCCCCCCCCC)[C@H](O)[C@@H]2OC)O[C@H](CO)[C@H]1OP(=O)(O)O [Compound 1, 4-O-[(R)-3-(Dodecanoyloxy)tetradecanoyl]-2-O-methyl-6-O-phosphoryl-α-D-mannopyranosyl-(1↔1)-2-deoxy-2-[(R)-3-(dodecanoyloxy)tetradecanoylamino]-4-O-phosphoryl-3-O-[(R)-3-(tetradecanoyloxy)tetradecanoyl]-α-D-glucopyranoside] | – | – | 0.4 | 0.424 | – | 0.212 | 1.282 | 1.369 | 0.505 | 0.225 | 1.341 | 1.312 | 0.352 | 0.215 | 1.257 | 1.348 | 0.421 | 3 | – | 5
